Data reported in ChEMBL document CHEMBL1130668, “Synthesis and evaluation of paclitaxel C7 derivatives: solution phase synthesis of combinatorial libraries” (1998).

Key:
[1] = Cytotoxicity activity was measured against human breast cancer cell line MCF-7 with respect to ED50 of paclitaxel (2 nM); type: functional, MCF7
[2] = tested on: MCF7; assay: Effect on microtubule assembly in MCF-7 cells, compared to paclitaxel (0.3 uM), given as ratio of respective ED50; type: functional, Homo sapiens
[3] = Cytotoxicity activity was measured against resistant human breast cancer cell line MCF-7 with respect to ED50 of paclitaxel (2200-3700 nM); type: functional, MCF7
[4] = tested on: MCF7; assay: Cytotoxicity activity was measured against human breast cancer cell line MCF-7; Did not inhibit proliferation at maximum concentration tested; type: functional; conditions: read-out: ED50 (the source's name)
[5] = tested on: MCF7; assay: Cytotoxicity activity was measured against resistant human breast cancer cell line MCF-7; Did not inhibit proliferation at maximum concentration tested; type: functional; conditions: read-out: ED50 (the source's name)

Structure (SMILES) | Ratio [1] | Ratio [2] | Ratio [3] | EC50 [4] [nM] | EC50 [5] [nM]
CC(=O)O[C@H]1C(=O)[C@]2(C)[C@@H](OC(=O)C(C)(C)C)C[C@H]3OC[C@@]3(OC(C)=O)[C@H]2[C@H](OC(=O)c2ccccc2)[C@]2(O)C[C@H](OC(=O)[C@H](O)[C@@H](NC(=O)c3ccccc3)c3ccccc3)C(C)=C1C2(C)C [PACLITAXEL C7 TRIMETHYLACETIC ACID ESTER] | 3 | 8.3 | 1.5 |  | 
CC(=O)O[C@H]1C(=O)[C@]2(C)[C@@H](OC(=O)c3ccsc3)C[C@H]3OC[C@@]3(OC(C)=O)[C@H]2[C@H](OC(=O)c2ccccc2)[C@]2(O)C[C@H](OC(=O)[C@H](O)[C@@H](NC(=O)c3ccccc3)c3ccccc3)C(C)=C1C2(C)C |  | 1.7 | 1.3 | > 80 | 
CC(=O)O[C@H]1C(=O)[C@]2(C)[C@@H](OC(=O)c3ccc4ccccc4c3)C[C@H]3OC[C@@]3(OC(C)=O)[C@H]2[C@H](OC(=O)c2ccccc2)[C@]2(O)C[C@H](OC(=O)[C@H](O)[C@@H](NC(=O)c3ccccc3)c3ccccc3)C(C)=C1C2(C)C |  | 60 |  | > 80 | > 5000
CC(=O)O[C@H]1C(=O)[C@]2(C)[C@@H](OC(=O)c3cccnc3C)C[C@H]3OC[C@@]3(OC(C)=O)[C@H]2[C@H](OC(=O)c2ccccc2)[C@]2(O)C[C@H](OC(=O)[C@H](O)[C@@H](NC(=O)c3ccccc3)c3ccccc3)C(C)=C1C2(C)C |  | 32 |  | > 80 | > 5000
CSCC(=O)O[C@H]1C[C@H]2OC[C@@]2(OC(C)=O)[C@H]2[C@H](OC(=O)c3ccccc3)[C@]3(O)C[C@H](OC(=O)[C@H](O)[C@@H](NC(=O)c4ccccc4)c4ccccc4)C(C)=C([C@@H](OC(C)=O)C(=O)[C@]12C)C3(C)C [PACLITAXEL C7 METHYLTHIOACETIC ACID ESTER] | 10 | 0.7 | 0.5 |  | 
CC(=O)O[C@H]1C(=O)[C@]2(C)[C@@H](OC(=O)c3ccco3)C[C@H]3OC[C@@]3(OC(C)=O)[C@H]2[C@H](OC(=O)c2ccccc2)[C@]2(O)C[C@H](OC(=O)[C@H](O)[C@@H](NC(=O)c3ccccc3)c3ccccc3)C(C)=C1C2(C)C | 27 | 22 | 1 |  | 
CC(=O)O[C@H]1C(=O)[C@]2(C)[C@@H](OC(C)=O)C[C@H]3OC[C@@]3(OC(C)=O)[C@H]2[C@H](OC(=O)c2ccccc2)[C@]2(O)C[C@H](OC(=O)[C@H](O)[C@@H](NC(=O)c3ccccc3)c3ccccc3)C(C)=C1C2(C)C [PACLITAXEL C7 ACETYLCARBOXYLIC ACID ESTER] | 8 | 0.7 | 0.7 |  | 
CC(=O)O[C@H]1C(=O)[C@]2(C)[C@@H](OC(=O)c3ccc([N+](=O)[O-])o3)C[C@H]3OC[C@@]3(OC(C)=O)[C@H]2[C@H](OC(=O)c2ccccc2)[C@]2(O)C[C@H](OC(=O)[C@H](O)[C@@H](NC(=O)c3ccccc3)c3ccccc3)C(C)=C1C2(C)C | 12 | 8.7 |  |  | > 5000
CC(=O)O[C@H]1C(=O)[C@]2(C)[C@@H](OC(=O)c3ccccc3)C[C@H]3OC[C@@]3(OC(C)=O)[C@H]2[C@H](OC(=O)c2ccccc2)[C@]2(O)C[C@H](OC(=O)[C@H](O)[C@@H](NC(=O)c3ccccc3)c3ccccc3)C(C)=C1C2(C)C [PACLITAXEL C7 BENZOIC ACID ESTER] | 14 | 8.3 | 1.1 |  | 
CCCCC(=O)O[C@H]1C[C@H]2OC[C@@]2(OC(C)=O)[C@H]2[C@H](OC(=O)c3ccccc3)[C@]3(O)C[C@H](OC(=O)[C@H](O)[C@@H](NC(=O)c4ccccc4)c4ccccc4)C(C)=C([C@@H](OC(C)=O)C(=O)[C@]12C)C3(C)C [PACLITAXEL C7 VALERIC ACID ESTER] | 10 | 0.7 | 0.4 |  | 
CC(=O)O[C@H]1C(=O)[C@]2(C)[C@@H](OC(=O)CC#N)C[C@H]3OC[C@@]3(OC(C)=O)[C@H]2[C@H](OC(=O)c2ccccc2)[C@]2(O)C[C@H](OC(=O)[C@H](O)[C@@H](NC(=O)c3ccccc3)c3ccccc3)C(C)=C1C2(C)C [PACLITAXEL C7 CYANOACETIC ACID ESTER] | 8 | 1.3 |  | > 5000 | 
CC(=O)O[C@H]1C(=O)[C@]2(C)[C@@H](OC(=O)c3ccc(C)cc3)C[C@H]3OC[C@@]3(OC(C)=O)[C@H]2[C@H](OC(=O)c2ccccc2)[C@]2(O)C[C@H](OC(=O)[C@H](O)[C@@H](NC(=O)c3ccccc3)c3ccccc3)C(C)=C1C2(C)C | 31 | 25 | 0.9 |  | 
CC(=O)O[C@H]1C(=O)[C@]2(C)[C@@H](OC(=O)c3ccc(Cl)cc3)C[C@H]3OC[C@@]3(OC(C)=O)[C@H]2[C@H](OC(=O)c2ccccc2)[C@]2(O)C[C@H](OC(=O)[C@H](O)[C@@H](NC(=O)c3ccccc3)c3ccccc3)C(C)=C1C2(C)C |  | 13 | 1.6 | > 80 | 
CC(=O)OCC(=O)O[C@H]1C[C@H]2OC[C@@]2(OC(C)=O)[C@H]2[C@H](OC(=O)c3ccccc3)[C@]3(O)C[C@H](OC(=O)[C@H](O)[C@@H](NC(=O)c4ccccc4)c4ccccc4)C(C)=C([C@@H](OC(C)=O)C(=O)[C@]12C)C3(C)C [PACLITAXEL C7 ACETOXYACETIC ACID ESTER] | 17 | 1.7 | 1.8 |  | 
CC(=O)O[C@H]1C(=O)[C@]2(C)[C@@H](OC(=O)C3CCCC3)C[C@H]3OC[C@@]3(OC(C)=O)[C@H]2[C@H](OC(=O)c2ccccc2)[C@]2(O)C[C@H](OC(=O)[C@H](O)[C@@H](NC(=O)c3ccccc3)c3ccccc3)C(C)=C1C2(C)C [PACLITAXEL C7 CYCLOPENTANECARBOXYLIC ACID ESTER] | 37 | 1 | 1.3 |  | 
COCC(=O)O[C@H]1C[C@H]2OC[C@@]2(OC(C)=O)[C@H]2[C@H](OC(=O)c3ccccc3)[C@]3(O)C[C@H](OC(=O)[C@H](O)[C@@H](NC(=O)c4ccccc4)c4ccccc4)C(C)=C([C@@H](OC(C)=O)C(=O)[C@]12C)C3(C)C [PACLITAXEL C7 METHOXYACETIC ACID ESTER] | 14 | 1 | 1.3 |  | 
CC(=O)O[C@H]1C(=O)[C@]2(C)[C@@H](OC(=O)c3cccn3C)C[C@H]3OC[C@@]3(OC(C)=O)[C@H]2[C@H](OC(=O)c2ccccc2)[C@]2(O)C[C@H](OC(=O)[C@H](O)[C@@H](NC(=O)c3ccccc3)c3ccccc3)C(C)=C1C2(C)C |  | 8.3 | 1.2 | > 80 | 
COc1ccc(C(=O)O[C@H]2C[C@H]3OC[C@@]3(OC(C)=O)[C@H]3[C@H](OC(=O)c4ccccc4)[C@]4(O)C[C@H](OC(=O)[C@H](O)[C@@H](NC(=O)c5ccccc5)c5ccccc5)C(C)=C([C@@H](OC(C)=O)C(=O)[C@]23C)C4(C)C)cc1 |  | 22 | 2.2 | > 80 | 
CC(=O)O[C@H]1C(=O)[C@]2(C)[C@@H](OC(=O)C3CC3)C[C@H]3OC[C@@]3(OC(C)=O)[C@H]2[C@H](OC(=O)c2ccccc2)[C@]2(O)C[C@H](OC(=O)[C@H](O)[C@@H](NC(=O)c3ccccc3)c3ccccc3)C(C)=C1C2(C)C [PACLITAXEL C7 CYCLOPROPANECARBOXYLIC ACID ESTER] | 35 | 22 |  |  | > 5000
